One data set concerns spleen cells. Briefly: cells. In kind it is cell-based. The conditions noted are these: 24 h, read-out: Minimum effective concentration (interferon inducing activity), CD(SD)IGS rat spleen cells, 24 hours incubation; interferon in supernatant by L929/vesicular stomatitis virus bioassay.
A short description of data set [1]: Metabolic stability test using human plasma. It counts as in vitro ADME. The settings on record: 1 μM test compound, 37° C. for 15 minutes, residual amount per pre-metabolization concentration as 100%. The protocol:
Plasma was prepared from fresh human blood and the test compound (containing 1% DMSO) of the final concentration of 1 μM was added thereto.
After a metabolic reaction by plasma esterase was conducted at 37° C. for 15 minutes, the test compound was extracted with ethyl acetate, and quantitatively analyzed by reverse phase HPLC. The metabolic stability of the test compound was shown by the residual amount (%) per the concentration of pre-metabolization as 100%.

Data set [2] can be described thus: Metabolic stability test on rat liver S9. In kind it is in vitro ADME. The settings on record: rat liver S9 with NADPH, 1 μM test compound, 37° C.; residual rate after reaction, LC/MS. The procedure: The reaction using liver S9 of rat was conducted on a 96-well plate by using a screening robot by Tecan Company. S9 solution was prepared by adding 250 mM Kpi (pH 7.4) 20 ml and deionized water 20 ml to 10 ml of liver S9 of rat, a Cofactor solution was prepared by dissolving NADPH 220 mg in deionized water 40.5 ml (Final 6 mM), and IS (Internal Standard) solution was prepared by adding IS solution (1 mM DMSO solution) 300 μl to acetonitrile 30 ml (100 times dilution). The test compound (1 μM DMSO solution) was dissolved in an incubator at 37° C. After each 35 μL was poured in a 96-well plate (24 samples/plate), plates (sample plates, 96-well plates for dilution, each Deep well plates for the reaction and the recovery, plates for extraction of a solid phase) and reagents (S9 solution, Cofactor solution, IS (Internal Standard) solution, Stop solution, acetonitrile for elution) were set to the specified position in the booth of the robot, and the reaction started (the concentration of the test compounds was 1 μM). Incubation was conducted under shaking at 37° C., the solid phase was extracted (at the same time, the internal standard for analysis was added). To the recovered samples 200 μL/well was added 50 μL of acetonitrile per each well, and to 2 plates of FALCON Deep well were poured 100 μL/well of the solution per well. By subjecting to the LC/MS analysis, the chromatography of the test compound and the internal standard were described and the peak area was calculated. And then, the stability (residual rate after reaction) was calculated.

We go through 22 compounds from patent US20070225303A1, “8-Oxoadenine Compound” (priority 2004, published 2007).

Consider `Nc1nc(SCCCO)nc2c1nc(O)n2Cc1cccc(CC(=O)O)c1` [Comparative example 1, 9-(3-Carboxymethylbenzyl)-8-hydroxy-2-(3-hydroxypropylthio)adenine, reference compound], for which the minimal effective concentration in the data set with spleen cells was greater than 1 µM.
The same measure, in the same setting: for `Nc1nc(SCCCCO)nc2c1nc(O)n2Cc1cccc(CC(=O)O)c1` [Comparative example 2, 9-(3-Carboxymethylbenzyl)-8-hydroxy-2-(4-hydroxybutylthio)adenine, reference compound] the value was 1 µM.
The compound `COC(=O)Cc1cccc(Cn2c(O)nc3c(N)nc(SCCCO)nc32)c1` [Example 1, 8-Hydroxy-2-(3-hydroxypropylthio)-9-(3-methoxycarbonylmethylbenzyl)adenine] had a Residual rate in data set [1] of less than 1%. Moreover, in the data set on spleen cells, the minimal effective concentration was found to be 0.01 µM.
On the same counts, the results for `COC(=O)Cc1cccc(Cn2c(O)nc3c(N)nc(SCCCCO)nc32)c1` [Example 2, 8-Hydroxy-2-(4-hydroxybutylthio)-9-(3-methoxycarbonylmethylbenzyl)adenine] are less than 1% and 0.01 µM.
As for `COC(=O)Cc1cccc(Cn2c(O)nc3c(N)nc(OCCCO)nc32)c1` [Example 4, 8-Hydroxy-2-(3-hydroxypropoxy)-9-(3-methoxycarbonylmethylbenzyl)adenine], the Residual rate in data set [2] came out at 8%; in data set [1], 3.2%. The minimal effective concentration in the data set with spleen cells stood at 0.03 µM.
Regarding `COC(=O)Cc1cccc(Cn2c(O)nc3c(N)nc(OCCO)nc32)c1` [Example 5, 8-Hydroxy-2-(2-hydroxyethoxy)-9-(3-methoxycarbonylmethylbenzyl)adenine], the Residual rate in data set [1] was determined as 5.8%. Further, the minimal effective concentration in the data set with spleen cells turned out to be 0.1 µM.
With `CCCCOc1nc(N)c2nc(O)n(CCc3cccc(CC(=O)OC)c3)c2n1` [Example 9, 2-Butoxy-8-hydroxy-9-[2-(3-methoxycarbonylmethylphenyl)ethyl]adenine], the Residual rate is 0% in data set [2] and 7.9% in data set [1]. Also, the minimal effective concentration in the data set on spleen cells came to 0.03 µM.
With `CCCCOc1nc(N)c2nc(O)n(CCCc3cccc(CC(=O)OC)c3)c2n1` [Example 10, 2-Butoxy-8-hydroxy-9-[3-(3-methoxycarbonylmethylphenyl)propyl]adenine], the results for the Residual rate in data set [2] and in data set [1] were 1% and less than 1%, respectively. Besides, the minimal effective concentration in the data set with spleen cells is 0.01 µM.
Turning to `COC(=O)Cc1cccc(Cn2c(O)nc3c(N)nc(OCC(O)CO)nc32)c1` (stereo not shown) [Example 11, 2-(2,3-Dihydroxy-1-propoxy)-8-hydroxy-9-(3-methoxycarbonylmethylbenzyl)adenine], in data set [1], the Residual rate is 20.9%.
Compound `CCOCCOc1nc(N)c2nc(O)n(Cc3cccc(CC(=O)OC)c3)c2n1` [Example 12, 2-(2-Ethoxyethoxy)-8-hydroxy-9-(3-methoxycarbonylmethylbenzyl)adenine] yielded a Residual rate in data set [2] of 0%.
Same read-out and setting: for `COC(=O)Cc1cccc(Cn2c(O)nc3c(N)nc(OCC4CCCCC4)nc32)c1` [Example 13, 2-Cyclohexylmethoxy-8-hydroxy-9-(3-methoxycarbonylmethylbenzyl)adenine] the value was 11%; for `COC(=O)CCc1nc(N)c2nc(O)n(Cc3cccc(CC(=O)OC)c3)c2n1` [Example 15, 8-Hydroxy-2-(2-methoxycarbonylethyl)-9-(3-methoxycarbonylmethylbenzyl)adenine], 0%.
`CCCCOc1nc(N)c2nc(O)n(Cc3ccc(CC(=O)OC)s3)c2n1` [Example 16, 2-Butoxy-8-hydroxy-9-{(5-methoxycarbonylmethyl-2-thienyl)methyl}adenine]: the Residual rate in data set [2] worked out at 0%.
The same measure, in the same setting: in the case of `CCCCOc1nc(N)c2nc(O)n(Cc3cccc(CC(=O)OC)n3)c2n1` [Example 18, 2-Butoxy-8-hydroxy-9-{(6-methoxycarbonylmethyl-2-pyridyl)methyl}adenine] it was 0%; in that of `CCCCOc1nc(N)c2nc(O)n(Cc3cc(CC(=O)OC)ccn3)c2n1` [Example 19, 2-Butoxy-8-hydroxy-9-{(4-methoxycarbonylmethyl-2-pyridyl)methyl}adenine], 0%; in that of `CCCCOc1nc(N)c2[nH]c(=O)n(Cc3cc(CC(=O)OC)ccc3OC)c2n1` [Example 20, 2-Butoxy-8-hydroxy-9-[(2-methoxy-5-methoxycarbonylmethyl)benzyl]adenine], 0%.
For `CCCCOc1nc(N)c2[nH]c(=O)n(Cc3ccc(F)c(CC(=O)OC)c3)c2n1` [Example 21, 2-Butoxy-9-[(4-fluoro-3-methoxycarbonylmethyl)benzyl]-8-hydroxyadenine], the Residual rate in data set [2] is listed as 1%.
Same read-out and setting: in the case of `CCCCOc1nc(N)c2[nH]c(=O)n(Cc3ccc(OC)c(CC(=O)OC)c3)c2n1` [Example 22, 2-Butoxy-8-hydroxy-9-[(4-methoxy-3-methoxycarbonylmethyl)benzyl]adenine] it was 2%.
For the compound `Nc1nc(OCCCO)nc2c1nc(O)n2Cc1cccc(CC(=O)O)c1` [compound 4, 9-(3-Carboxymethylbenzyl)-8-hydroxy-2-(3-hydroxypropoxy)adenine, reference compound], the minimal effective concentration in the data set with spleen cells is greater than 1 µM.
The same measure, in the same setting: for `Nc1nc(OCCO)nc2c1nc(O)n2Cc1cccc(CC(=O)O)c1` [compound 5, 9-(3-Carboxymethylbenzyl)-8-hydroxy-2-(2-hydroxyethoxy)adenine, reference compound] the value was greater than 1 µM; for `CCCCOc1nc(N)c2nc(O)n(CCc3cccc(CC(=O)O)c3)c2n1` [compound 9, 2-Butoxy-9-[2-(3-carboxymethylphenyl)ethyl]-8-hydroxyadenine, reference compound], 0.3 µM; for `CCCCOc1nc(N)c2nc(O)n(CCCc3cccc(CC(=O)O)c3)c2n1` [compound 10, 2-Butoxy-9-[3-(3-carboxymethylphenyl)propyl]-8-hydroxyadenine, reference compound], 0.1 µM.
